In US20240124422A1, “MUTANT PI3K-ALPHA INHIBITORS AND THEIR USE AS PHARMACEUTICALS” (Prelude Therapeutics Incorporated, priority 2022, published 2024):

The molecules below were run on phosphorylation of AKT on Ser473 as a readout of the PI3K pathway in T-47D (heterozygous PIK3CA H1047R) cells (assay: PI3K pathway activation assay, pAKT Ser473 HTRF, T-47D cells). Conditions: Homo sapiens, T47D, 2 h, two hours of treatment.
Format: cell-based
Method: The inhibitory activity of compounds was evaluated by measuring phosphorylation of AKT on Ser473 as a readout of the PI3K pathway using HTRF (CisBio catalog number: 64AKSPE). These studies were conducted in the T-47D (heterozygous PIK3CA H1047R) and SKBR3 (PIK3CA WT) cell lines. Cells were maintained in a 37° C. incubator at 5% CO2 in the following media: T-47D: RPMI 1640, ATCC© Modification (Gibco, A10491-01) supplemented with 10% v/v FBS (Gibco, 26140-079), 1% penicillin streptomycin (Gibco, 15140-122), and 7.4 ug/mL insulin (MilliporeSigma, I9278); SKBR3: McCoy's 5a (Modified) Medium (Gibco, 16600-082) supplemented with 10% v/v FBS (Gibco, 26140-079). Cells were seeded in 384-well plates at a density of 4,000 cells/well. Compounds dissolved in DMSO were added using a digital dispense (D300E, Tecan) 10-point serial dilution. After two hours of treatment, cells were lysed for thirty minutes and then incubated with detection reagents per HTRF kit material and manufacturer's instructions. Fluorescence signal was measured with a multimode plate reader (Envision 2105, Perkin Elmer). Fluorescent signal was normalized to background and DMSO controls to obtain percent inhibition/activity for each compound.

IC50	Compound
< 500 nM	CC(Nc1ccccc1C(=O)O)c1cc(Br)cc2c(=O)n(C)c(N3CCC(F)(F)CC3)nc12 (centres unmarked) [Example 74, 2-((1-(6-Bromo-2-(4,4-difluoropiperidin-1-yl)-3-methyl-4-oxo-3,4-dihydroquinazolin-8-yl)ethyl)amino)benzoic acid]
500 to 10000 nM	Cc1cc(C(C)Nc2ccccc2C(=O)O)c2nc(N3Cc4ccccc4C3)n([C@H]3C[C@H](C#N)C3)c(=O)c2c1 (some centres unmarked) [Example 75, 2-((1-(3-((1r,3r)-3-Cyanocyclobutyl)-2-(isoindolin-2-yl)-6-methyl-4-oxo-3,4-dihydroquinazolin-8-yl)ethyl)amino)benzoic acid]
500 to 10000 nM	CC(Nc1ccccc1C(=O)O)c1cc(C2CC2)cc2c(=O)n(C)c(N3CC4CC4C3)nc12 (centres unmarked) [Example 76, 2-((1-(2-(3-Azabicyclo[3.1.0]hexan-3-yl)-6-cyclopropyl-3-methyl-4-oxo-3,4-dihydroquinazolin-8-yl)ethyl)amino)benzoic acid]
500 to 10000 nM	COc1cc(C(C)Nc2ccccc2C(=O)O)c2nc(N3CC4CC4C3)n(C)c(=O)c2c1 (centres unmarked) [Example 77, 2-((1-(2-(3-azabicyclo[3.1.0]hexan-3-yl)-6-methoxy-3-methyl-4-oxo-3,4-dihydroquinazolin-8-yl)ethyl)amino)benzoic acid]
500 to 10000 nM	CCc1cc(C(C)Nc2ccccc2C(=O)O)c2nc(N3CC4CC4C3)n(C)c(=O)c2c1 (centres unmarked) [Example 78, 2-((1-(2-(3-Azabicyclo[3.1.0]hexan-3-yl)-6-ethyl-3-methyl-4-oxo-3,4-dihydroquinazolin-8-yl)ethyl)amino)benzoic acid]
500 to 10000 nM	CC(Nc1ccccc1C(=O)O)c1cc(C(F)F)cc2c(=O)n(C)c(N3CC4CC4C3)nc12 (centres unmarked) [Example 79, 2-((1-(2-(3-Azabicyclo[3.1.0]hexan-3-yl)-6-(difluoromethyl)-3-methyl-4-oxo-3,4-dihydroquinazolin-8-yl)ethyl)amino)benzoic acid]
500 to 10000 nM	Cc1cc(C(C)Nc2ccc(C(F)(F)F)nc2C(=O)O)c2nc(N3CC4CC4C3)n(C)c(=O)c2c1 (centres unmarked) [Example 80, 3-((1-(2-(3-azabicyclo[3.1.0]hexan-3-yl)-3,6-dimethyl-4-oxo-3,4-dihydro-quinazolin-8-yl)ethyl)amino)-6-(trifluoromethyl)picolinic acid]
< 500 nM	Cc1cc(C(C)Nc2ccccc2C(=O)O)c2nc(N3C[C@@H]4[C@H](C3)[C@H]4C(=O)N(C)C(C)C)n(C)c(=O)c2c1 (stereo partly drawn) [Example 81, 2-((1-(2-((1R,5S,6R)-6-(Isopropyl(methyl)carbamoyl)-3-azabicyclo[3.1.0]hexan-3-yl)-3,6-dimethyl-4-oxo-3,4-dihydroquinazolin-8-yl)ethyl)amino)benzoic acid]
< 500 nM	Cc1cc(C(C)Nc2ccccc2C(=O)O)c2nc(N3CCN(C(=O)C4CCCC4)CC3)n(C)c(=O)c2c1 (centres unmarked) [Example 91, 2-((1-(2-(4-(Cyclopentanecarbonyl)piperazin-1-yl)-3,6-dimethyl-4-oxo-3,4-dihydroquinazolin-8-yl)ethyl)amino)benzoic acid]
500 to 10000 nM	Cc1cc(C(C)Nc2ccccc2C(=O)O)c2nc(N3CCN(C(=O)C45CC(F)(C4)C5)CC3)n(C)c(=O)c2c1 (centres unmarked) [Example 92, 2-((1-(2-(4-(3-Fluorobicyclo[1.1.1]pentane-1-carbonyl)piperazin-1-yl)-3,6-dimethyl-4-oxo-3,4-dihydroquinazolin-8-yl)ethyl)amino)benzoic acid]
500 to 10000 nM	COCC(=O)N1CCN(c2nc3c(C(C)Nc4ccccc4C(=O)O)cc(C)cc3c(=O)n2C)CC1 (centres unmarked) [Example 93, 2-((1-(2-(4-(2-Methoxyacetyl)piperazin-1-yl)-3,6-dimethyl-4-oxo-3,4-dihydro-quinazolin-8-yl)ethyl)amino)benzoic acid]
< 500 nM	Cc1cc(C(C)Nc2ccccc2C(=O)O)c2nc(N3CCN(C(=O)c4ccc(C)nc4)CC3)n(C)c(=O)c2c1 (centres unmarked) [Example 94, 2-((1-(3,6-Dimethyl-2-(4-(6-methylnicotinoyl)piperazin-1-yl)-4-oxo-3,4-dihydro-quinazolin-8-yl)ethyl)amino)benzoic acid]
500 to 10000 nM	Cc1cc(C(Nc2ccccc2C(=O)O)C(F)F)c2nc(N3CC4CC4C3)n(C)c(=O)c2c1 (centres unmarked) [Example 96, 2-((1-(2-(3-azabicyclo[3.1.0]hexan-3-yl)-3,6-dimethyl-4-oxo-3,4-dihydro-quinazolin-8-yl)-2,2-difluoroethyl)amino)benzoic acid]
500 to 10000 nM	CCC(Nc1ccccc1C(=O)O)c1cc(C)cc2c(=O)n(C)c(N3CC4CC4C3)nc12 (centres unmarked) [Example 97, 2-((1-(2-(3-azabicyclo[3.1.0]hexan-3-yl)-3,6-dimethyl-4-oxo-3,4-dihydro-quinazolin-8-yl)propyl)amino)benzoic acid]
500 to 10000 nM	Cc1cc(C(C)Nc2ccccc2C(=O)O)c2nc(N3CC4CC4C3)n(C(F)F)c(=O)c2c1 (centres unmarked) [Example 102, 2-((1-(2-(3-Azabicyclo[3.1.0]hexan-3-yl)-3-(difluoromethyl)-6-methyl-4-oxo-3,4-dihydroquinazolin-8-yl)ethyl)amino)benzoic acid]
500 to 10000 nM	Cc1cc(C(C)Nc2ccccc2C(=O)O)c2nc(N3CC4CC4C3)n(CC(F)(F)F)c(=O)c2c1 (centres unmarked) [Example 103, 2-((1-(2-(3-Azabicyclo[3.1.0]hexan-3-yl)-6-methyl-4-oxo-3-(2,2,2-trifluoroethyl)-3,4-dihydroquinazolin-8-yl)ethyl)amino)benzoic acid]
< 500 nM	Cc1cc(C(C)Nc2ccccc2C(=O)O)c2nc(N3CC4(CCC4(F)F)C3)n(C)c(=O)c2c1 (centres unmarked) [Example 106, 2-[1-[2-(7,7-difluoro-2-azaspiro[3.3]heptan-2-yl)-3,6-dimethyl-4-oxoquinazolin-8-yl]ethylamino]benzoic acid]
500 to 10000 nM	Cc1cc(C(C)Nc2ccccc2C(=O)O)c2nc(N3CCC4(CC3)CC(NC(=O)OC(C)(C)C)C4)n(C)c(=O)c2c1 (centres unmarked) [Example 107, 2-[1-[3,6-dimethyl-2-[2-[(2-methylpropan-2-yl)oxycarbonylamino]-7-azaspiro[3.5]nonan-7-yl]-4-oxoquinazolin-8-yl]ethylamino]benzoic acid]
500 to 10000 nM	Cc1cc(C(C)Nc2ccccc2C(=O)O)c2nc(N3CCC4(CC3)CN(C(=O)OC(C)(C)C)C4)n(C)c(=O)c2c1 (centres unmarked) [Example 108, 2-[1-[3,6-dimethyl-2-[2-[(2-methylpropan-2-yl)oxycarbonyl]-2,7-diazaspiro[3.5]nonan-7-yl]-4-oxoquinazolin-8-yl]ethylamino]benzoic acid]

Same assay, conditions: two hours of treatment, read-out: T47D pAKT IC50

Compound	IC50
CON(C)C(=O)C1[C@H]2CN(c3nc4c(C(C)Nc5ccccc5C(=O)O)cc(C)cc4c(=O)n3C)C[C@@H]12 (stereo partly drawn) [Example 83, 2-((1-(2-((1R,5S,6R)-6-(Methoxy(methyl)carbamoyl)-3-azabicyclo[3.1.0]hexan-3-yl)-3,6-dimethyl-4-oxo-3,4-dihydroquinazolin-8-yl)ethyl)amino)benzoic acid]	< 500 nM
Cc1cc(C(C)Nc2ccccc2C(=O)O)c2nc(N3C[C@@H]4[C@H](C3)[C@H]4C(=O)N(C)CC(F)F)n(C)c(=O)c2c1 (stereo partly drawn) [Example 84, 2-((1-(2-((1R,5S,6R)-6-((2,2-Difluoroethyl)(methyl)carbamoyl)-3-azabicyclo[3.1.0]hexan-3-yl)-3,6-dimethyl-4-oxo-3,4-dihydroquinazolin-8-yl)ethyl)amino)benzoic acid]	< 500 nM
Cc1cc(C(C)Nc2ccccc2C(=O)O)c2nc(N3C[C@@H]4C(C(=O)N5CCC[C@@H]5C)[C@@H]4C3)n(C)c(=O)c2c1 (stereo partly drawn) [Example 85, 2-((1-(3,6-Dimethyl-2-((1R,5S,6R)-6-((S)-2-methylpyrrolidine-1-carbonyl)-3-azabicyclo[3.1.0]hexan-3-yl)-4-oxo-3,4-dihydroquinazolin-8-yl)ethyl)amino)benzoic acid]	< 500 nM
Cc1cc(C(C)Nc2ccccc2C(=O)O)c2nc(N3C[C@@H]4[C@H](C3)[C@H]4C(=O)N3CCOC[C@@H]3C)n(C)c(=O)c2c1 (stereo partly drawn) [Example 86, 2-((1-(3,6-Dimethyl-2-((1R,5S,6R)-6-((S)-3-methylmorpholine-4-carbonyl)-3-azabicyclo[3.1.0]hexan-3-yl)-4-oxo-3,4-dihydroquinazolin-8-yl)ethyl)amino)benzoic acid]	< 500 nM
COCCN(C)C(=O)[C@H]1[C@@H]2CN(c3nc4c(C(C)Nc5ccccc5C(=O)O)cc(C)cc4c(=O)n3C)C[C@@H]21 (stereo partly drawn) [Example 87, 2-((1-(2-((1R,5S,6R)-6-((2-Methoxyethyl)(methyl)carbamoyl)-3-azabicyclo[3.1.0]hexan-3-yl)-3,6-dimethyl-4-oxo-3,4-dihydroquinazolin-8-yl)ethyl)amino)benzoic acid]	500 to 10000 nM
Cc1cc(C(C)Nc2ccccc2C(=O)O)c2nc(N3C[C@@H]4C(C(=O)N(C)c5cccnc5)[C@@H]4C3)n(C)c(=O)c2c1 (stereo partly drawn) [Example 88, 2-((1-(3,6-Dimethyl-2-((1R,5S,6R)-6-(methyl(pyridin-3-yl)carbamoyl)-3-azabicyclo[3.1.0]hexan-3-yl)-4-oxo-3,4-dihydroquinazolin-8-yl)ethyl)amino)benzoic acid]	500 to 10000 nM
CNC(=O)C1[C@H]2CN(c3nc4c(C(C)Nc5ccccc5C(=O)O)cc(C)cc4c(=O)n3C)C[C@@H]12 (stereo partly drawn) [Example 89, 2-((1-(3,6-Dimethyl-2-((1R,5S,6R)-6-(methylcarbamoyl)-3-azabicyclo[3.1.0]hexan-3-yl)-4-oxo-3,4-dihydroquinazolin-8-yl)ethyl)amino)benzoic acid]	500 to 10000 nM
